# According to ChEMBL document CHEMBL5303573, “Mapping human microbiome drug metabolism by gut bacteria and their genes” (Nature, 2019):
# Assay: The drug is tested on Escherichia coli strain: BW25113 for biotransformation. The drug concentrations were measured before and after a 12-h incubation by liquid-chromatography-coupled mass spectrometry (LC–MS)
# Details: 2 µM
row,Structure (SMILES),Bacterial Biotransformation
1,CCN(CC)CCNC(=O)c1cc(Cl)c(N)cc1OC [METOCLOPRAMIDE],Compound NOT metabolized
2,CN(C)CCOC(C)(c1ccccc1)c1ccccn1.O=C(O)CCC(=O)O (stereo not drawn) [DOXYLAMINE SUCCINATE],Compound NOT metabolized
3,CC1OC(OC2C(O)CC(OC3C(O)CC(OC4CCC5(C)C(CCC6C5CCC5(C)C(C7=CC(=O)OC7)CCC65O)C4)OC3C)OC2C)CC(O)C1O (stereo not drawn),Compound NOT metabolized

# Assay: The drug is tested on Bifidobacterium breve strain: DSM20213 for biotransformation. The drug concentrations were measured before and after a 12-h incubation by liquid-chromatography-coupled mass spectrometry (LC–MS)
# Details: 2 µM
row,Structure (SMILES),Bacterial Biotransformation
1,CCN(CC)CCNC(=O)c1cc(Cl)c(N)cc1OC [METOCLOPRAMIDE],Compound NOT metabolized
2,CN(C)CCOC(C)(c1ccccc1)c1ccccn1.O=C(O)CCC(=O)O (stereo not drawn) [DOXYLAMINE SUCCINATE],Compound NOT metabolized
3,CC1OC(OC2C(O)CC(OC3C(O)CC(OC4CCC5(C)C(CCC6C5CCC5(C)C(C7=CC(=O)OC7)CCC65O)C4)OC3C)OC2C)CC(O)C1O (stereo not drawn),Compound NOT metabolized

# Details: bifidobacterium adolescentis, 12 h, 2 µM
# Description: The drug is tested on Bifidobacterium adolescentis strain: ATCC 15703 for biotransformation. The drug concentrations were measured before and after a 12-h incubation by liquid-chromatography-coupled mass spectrometry (LC–MS)
row,Structure (SMILES),Bacterial Biotransformation
1,CCN(CC)CCNC(=O)c1cc(Cl)c(N)cc1OC [METOCLOPRAMIDE],Compound NOT metabolized
2,CN(C)CCOC(C)(c1ccccc1)c1ccccn1.O=C(O)CCC(=O)O (stereo not drawn) [DOXYLAMINE SUCCINATE],Compound NOT metabolized
3,CC1OC(OC2C(O)CC(OC3C(O)CC(OC4CCC5(C)C(CCC6C5CCC5(C)C(C7=CC(=O)OC7)CCC65O)C4)OC3C)OC2C)CC(O)C1O (stereo not drawn),Compound NOT metabolized

# Details: anaerostipes sp., 12 h, 2 µM
# Description: The drug is tested on Anaerostipes sp. strain: fecal isolate for biotransformation. The drug concentrations were measured before and after a 12-h incubation by liquid-chromatography-coupled mass spectrometry (LC–MS)
row,Structure (SMILES),Bacterial Biotransformation
1,CCN(CC)CCNC(=O)c1cc(Cl)c(N)cc1OC [METOCLOPRAMIDE],Compound NOT metabolized
2,CN(C)CCOC(C)(c1ccccc1)c1ccccn1.O=C(O)CCC(=O)O (stereo not drawn) [DOXYLAMINE SUCCINATE],Compound NOT metabolized
3,CC1OC(OC2C(O)CC(OC3C(O)CC(OC4CCC5(C)C(CCC6C5CCC5(C)C(C7=CC(=O)OC7)CCC65O)C4)OC3C)OC2C)CC(O)C1O (stereo not drawn),Compound NOT metabolized

# Assay: The drug is tested on Enterococcus faecalis strain: V583 for biotransformation. The drug concentrations were measured before and after a 12-h incubation by liquid-chromatography-coupled mass spectrometry (LC–MS)
# Details: 2 µM
row,Structure (SMILES),Bacterial Biotransformation
1,CCN(CC)CCNC(=O)c1cc(Cl)c(N)cc1OC [METOCLOPRAMIDE],Compound NOT metabolized
2,CN(C)CCOC(C)(c1ccccc1)c1ccccn1.O=C(O)CCC(=O)O (stereo not drawn) [DOXYLAMINE SUCCINATE],Compound NOT metabolized
3,CC1OC(OC2C(O)CC(OC3C(O)CC(OC4CCC5(C)C(CCC6C5CCC5(C)C(C7=CC(=O)OC7)CCC65O)C4)OC3C)OC2C)CC(O)C1O (stereo not drawn),Compound NOT metabolized

# Details: parabacteroides distasonis, 12 h, 2 µM
# Description: The drug is tested on Parabacteroides distasonis strain: ATCC8503 for biotransformation. The drug concentrations were measured before and after a 12-h incubation by liquid-chromatography-coupled mass spectrometry (LC–MS)
row,Structure (SMILES),Bacterial Biotransformation
1,CCN(CC)CCNC(=O)c1cc(Cl)c(N)cc1OC [METOCLOPRAMIDE],Compound NOT metabolized
2,CN(C)CCOC(C)(c1ccccc1)c1ccccn1.O=C(O)CCC(=O)O (stereo not drawn) [DOXYLAMINE SUCCINATE],Compound NOT metabolized
3,CC1OC(OC2C(O)CC(OC3C(O)CC(OC4CCC5(C)C(CCC6C5CCC5(C)C(C7=CC(=O)OC7)CCC65O)C4)OC3C)OC2C)CC(O)C1O (stereo not drawn),Compound metabolized

# Details: segatella copri, 12 h, 2 µM
# Description: The drug is tested on Prevotella copri strain: DSM18205 for biotransformation. The drug concentrations were measured before and after a 12-h incubation by liquid-chromatography-coupled mass spectrometry (LC–MS)
row,Structure (SMILES),Bacterial Biotransformation
1,CCN(CC)CCNC(=O)c1cc(Cl)c(N)cc1OC [METOCLOPRAMIDE],Compound NOT metabolized
2,CN(C)CCOC(C)(c1ccccc1)c1ccccn1.O=C(O)CCC(=O)O (stereo not drawn) [DOXYLAMINE SUCCINATE],Compound NOT metabolized
3,CC1OC(OC2C(O)CC(OC3C(O)CC(OC4CCC5(C)C(CCC6C5CCC5(C)C(C7=CC(=O)OC7)CCC65O)C4)OC3C)OC2C)CC(O)C1O (stereo not drawn),Compound metabolized

# Assay: The drug is tested on Bacteroides caccae strain: ATCC43185 for biotransformation. The drug concentrations were measured before and after a 12-h incubation by liquid-chromatography-coupled mass spectrometry (LC–MS)
# Details: 2 µM
row,Structure (SMILES),Bacterial Biotransformation
1,CCN(CC)CCNC(=O)c1cc(Cl)c(N)cc1OC [METOCLOPRAMIDE],Compound NOT metabolized
2,CN(C)CCOC(C)(c1ccccc1)c1ccccn1.O=C(O)CCC(=O)O (stereo not drawn) [DOXYLAMINE SUCCINATE],Compound NOT metabolized
3,CC1OC(OC2C(O)CC(OC3C(O)CC(OC4CCC5(C)C(CCC6C5CCC5(C)C(C7=CC(=O)OC7)CCC65O)C4)OC3C)OC2C)CC(O)C1O (stereo not drawn),Compound NOT metabolized

# Assay: The drug is tested on Clostridium scindens strain: ATCC35704 for biotransformation. The drug concentrations were measured before and after a 12-h incubation by liquid-chromatography-coupled mass spectrometry (LC–MS)
# Details: 2 µM
row,Structure (SMILES),Bacterial Biotransformation
1,CCN(CC)CCNC(=O)c1cc(Cl)c(N)cc1OC [METOCLOPRAMIDE],Compound NOT metabolized
2,CN(C)CCOC(C)(c1ccccc1)c1ccccn1.O=C(O)CCC(=O)O (stereo not drawn) [DOXYLAMINE SUCCINATE],Compound NOT metabolized
3,CC1OC(OC2C(O)CC(OC3C(O)CC(OC4CCC5(C)C(CCC6C5CCC5(C)C(C7=CC(=O)OC7)CCC65O)C4)OC3C)OC2C)CC(O)C1O (stereo not drawn),Compound metabolized

# Details: parabacteroides johnsonii, 12 h, 2 µM
# Description: The drug is tested on Parabacteroides johnsonii strain: DSM18315 for biotransformation. The drug concentrations were measured before and after a 12-h incubation by liquid-chromatography-coupled mass spectrometry (LC–MS)
row,Structure (SMILES),Bacterial Biotransformation
1,CCN(CC)CCNC(=O)c1cc(Cl)c(N)cc1OC [METOCLOPRAMIDE],Compound NOT metabolized
2,CC1OC(OC2C(O)CC(OC3C(O)CC(OC4CCC5(C)C(CCC6C5CCC5(C)C(C7=CC(=O)OC7)CCC65O)C4)OC3C)OC2C)CC(O)C1O (stereo not drawn),Compound metabolized

# Assay: The drug is tested on Clostridium sp. strain: fecal isolate for biotransformation. The drug concentrations were measured before and after a 12-h incubation by liquid-chromatography-coupled mass spectrometry (LC–MS)
# Details: 2 µM
row,Structure (SMILES),Bacterial Biotransformation
1,CC1OC(OC2C(O)CC(OC3C(O)CC(OC4CCC5(C)C(CCC6C5CCC5(C)C(C7=CC(=O)OC7)CCC65O)C4)OC3C)OC2C)CC(O)C1O (stereo not drawn),Compound metabolized

# Details: bacteroides fragilis, 12 h, 2 µM
# Description: The drug is tested on Bacteroides fragilis strain: 3397 (T10) for biotransformation. The drug concentrations were measured before and after a 12-h incubation by liquid-chromatography-coupled mass spectrometry (LC–MS)
row,Structure (SMILES),Bacterial Biotransformation
1,CCN(CC)CCNC(=O)c1cc(Cl)c(N)cc1OC [METOCLOPRAMIDE],Compound NOT metabolized
2,CN(C)CCOC(C)(c1ccccc1)c1ccccn1.O=C(O)CCC(=O)O (stereo not drawn) [DOXYLAMINE SUCCINATE],Compound NOT metabolized
3,CC1OC(OC2C(O)CC(OC3C(O)CC(OC4CCC5(C)C(CCC6C5CCC5(C)C(C7=CC(=O)OC7)CCC65O)C4)OC3C)OC2C)CC(O)C1O (stereo not drawn),Compound metabolized

# Assay: The drug is tested on Odoribacter splanchnicus strain: fecal isolate for biotransformation. The drug concentrations were measured before and after a 12-h incubation by liquid-chromatography-coupled mass spectrometry (LC–MS)
# Details: 2 µM
row,Structure (SMILES),Bacterial Biotransformation
1,CCN(CC)CCNC(=O)c1cc(Cl)c(N)cc1OC [METOCLOPRAMIDE],Compound NOT metabolized
2,CN(C)CCOC(C)(c1ccccc1)c1ccccn1.O=C(O)CCC(=O)O (stereo not drawn) [DOXYLAMINE SUCCINATE],Compound NOT metabolized
3,CC1OC(OC2C(O)CC(OC3C(O)CC(OC4CCC5(C)C(CCC6C5CCC5(C)C(C7=CC(=O)OC7)CCC65O)C4)OC3C)OC2C)CC(O)C1O (stereo not drawn),Compound metabolized

# Assay: The drug is tested on Blautia hansenii strain: DSM20583 for biotransformation. The drug concentrations were measured before and after a 12-h incubation by liquid-chromatography-coupled mass spectrometry (LC–MS)
# Details: 2 µM
row,Structure (SMILES),Bacterial Biotransformation
1,CC1OC(OC2C(O)CC(OC3C(O)CC(OC4CCC5(C)C(CCC6C5CCC5(C)C(C7=CC(=O)OC7)CCC65O)C4)OC3C)OC2C)CC(O)C1O (stereo not drawn),Compound metabolized

# Details: bacteroides thetaiotaomicron, 12 h, 2 µM
# Description: The drug is tested on Bacteroides thetaiotaomicron strain: VPI-5482 for biotransformation. The drug concentrations were measured before and after a 12-h incubation by liquid-chromatography-coupled mass spectrometry (LC–MS)
row,Structure (SMILES),Bacterial Biotransformation
1,CCN(CC)CCNC(=O)c1cc(Cl)c(N)cc1OC [METOCLOPRAMIDE],Compound NOT metabolized
2,CN(C)CCOC(C)(c1ccccc1)c1ccccn1.O=C(O)CCC(=O)O (stereo not drawn) [DOXYLAMINE SUCCINATE],Compound NOT metabolized
3,CC1OC(OC2C(O)CC(OC3C(O)CC(OC4CCC5(C)C(CCC6C5CCC5(C)C(C7=CC(=O)OC7)CCC65O)C4)OC3C)OC2C)CC(O)C1O (stereo not drawn),Compound metabolized

# Assay: The drug is tested on Bacteroides vulgatus strain: ATCC8482 for biotransformation. The drug concentrations were measured before and after a 12-h incubation by liquid-chromatography-coupled mass spectrometry (LC–MS)
# Details: phocaeicola vulgatus, 2 µM
row,Structure (SMILES),Bacterial Biotransformation
1,CCN(CC)CCNC(=O)c1cc(Cl)c(N)cc1OC [METOCLOPRAMIDE],Compound NOT metabolized
2,CN(C)CCOC(C)(c1ccccc1)c1ccccn1.O=C(O)CCC(=O)O (stereo not drawn) [DOXYLAMINE SUCCINATE],Compound NOT metabolized
3,CC1OC(OC2C(O)CC(OC3C(O)CC(OC4CCC5(C)C(CCC6C5CCC5(C)C(C7=CC(=O)OC7)CCC65O)C4)OC3C)OC2C)CC(O)C1O (stereo not drawn),Compound metabolized

# Assay: The drug is tested on Bacteroides cellulosilyticus strain: DSM14838 for biotransformation. The drug concentrations were measured before and after a 12-h incubation by liquid-chromatography-coupled mass spectrometry (LC–MS)
# Details: 2 µM
row,Structure (SMILES),Bacterial Biotransformation
1,CCN(CC)CCNC(=O)c1cc(Cl)c(N)cc1OC [METOCLOPRAMIDE],Compound NOT metabolized
2,CN(C)CCOC(C)(c1ccccc1)c1ccccn1.O=C(O)CCC(=O)O (stereo not drawn) [DOXYLAMINE SUCCINATE],Compound NOT metabolized

# Assay: The drug is tested on Providencia rettgeri strain: DSM1131 for biotransformation. The drug concentrations were measured before and after a 12-h incubation by liquid-chromatography-coupled mass spectrometry (LC–MS)
# Assay type: ADME
# Design: dose 2 uM, timepoint 0 vs 12 hours
# Details: 2 µM
row,Structure (SMILES),Bacterial Biotransformation
1,CCN(CC)CCNC(=O)c1cc(Cl)c(N)cc1OC [METOCLOPRAMIDE],Compound NOT metabolized
2,CC1OC(OC2C(O)CC(OC3C(O)CC(OC4CCC5(C)C(CCC6C5CCC5(C)C(C7=CC(=O)OC7)CCC65O)C4)OC3C)OC2C)CC(O)C1O (stereo not drawn),Compound NOT metabolized

# Assay: The drug is tested on Clostridium sporogenes strain: ATCC15579 for biotransformation. The drug concentrations were measured before and after a 12-h incubation by liquid-chromatography-coupled mass spectrometry (LC–MS)
# Details: 2 µM
row,Structure (SMILES),Bacterial Biotransformation
1,CCN(CC)CCNC(=O)c1cc(Cl)c(N)cc1OC [METOCLOPRAMIDE],Compound NOT metabolized
2,CN(C)CCOC(C)(c1ccccc1)c1ccccn1.O=C(O)CCC(=O)O (stereo not drawn) [DOXYLAMINE SUCCINATE],Compound NOT metabolized
3,CC1OC(OC2C(O)CC(OC3C(O)CC(OC4CCC5(C)C(CCC6C5CCC5(C)C(C7=CC(=O)OC7)CCC65O)C4)OC3C)OC2C)CC(O)C1O (stereo not drawn),Compound metabolized

# Assay: The drug is tested on Ruminococcus lactaris strain: ATCC29176 for biotransformation. The drug concentrations were measured before and after a 12-h incubation by liquid-chromatography-coupled mass spectrometry (LC–MS)
# Details: 2 µM
row,Structure (SMILES),Bacterial Biotransformation
1,CCN(CC)CCNC(=O)c1cc(Cl)c(N)cc1OC [METOCLOPRAMIDE],Compound NOT metabolized
2,CN(C)CCOC(C)(c1ccccc1)c1ccccn1.O=C(O)CCC(=O)O (stereo not drawn) [DOXYLAMINE SUCCINATE],Compound NOT metabolized
3,CC1OC(OC2C(O)CC(OC3C(O)CC(OC4CCC5(C)C(CCC6C5CCC5(C)C(C7=CC(=O)OC7)CCC65O)C4)OC3C)OC2C)CC(O)C1O (stereo not drawn),Compound NOT metabolized
